Test results: patent publication US9657003B2, “Androgen receptor modulating compounds” (ORION CORPORATION, priority 2009, dated 2017)
pIC50: −log10 of the molar value.

Columns and labels:
human AR = human AR (Homo sapiens (Human), UniProt P10275); assay: Agonism in AR overexpressing hAR/HEK293 cells, reporter gene assay; type: cell-based; details: % of testosterone-induced AR activity at 10 μM concentration
Procedure: AR agonism of the test compound in AR overexpressing hAR/HEK293 cells was measured as % of testosterone-induced AR activity at 10 μM concentration,
Agonism of test compounds in AR overexpressing cells was measured by reporter gene assay in HEK293 cells stably transfected with an expression vector encoding full-length human AR and androgen responsive luciferase reporter gene construct. A clone expressing high levels of androgen receptor (5 times more than AR levels in AR-HEK293 cells) was selected to study agonism in AR overexpressing cells. To determine agonism, the cells were treated with increasing concentrations of the test compound. The final DMSO concentration was 1%. The test compounds were studied in triplicates and luciferase activity was determined as described above.

[1] = tested on: VCaP prostate cancer cell line; assay: Inhibition of mibolerone-induced VCaP cell proliferation (WST-1); type: cell-based; details: Homo sapiens, mibolerone-induced (usually 0.1 nM) proliferation, 4-5 days
Procedure: The IC50 value of the test compound for inhibition of mibolerone-induced VCaP cell proliferation was measured.
Cell Proliferation Assays
The ability of test compounds to inhibit prostate, cancer cell growth was studied by measuring inhibition of cell proliferation using androgen-sensitive VCaP prostate cancer cell line. […] Cell proliferation was measured using WST-1 Cell Proliferation Assay (Roche).

Chain of human AR (P10275 whole entry): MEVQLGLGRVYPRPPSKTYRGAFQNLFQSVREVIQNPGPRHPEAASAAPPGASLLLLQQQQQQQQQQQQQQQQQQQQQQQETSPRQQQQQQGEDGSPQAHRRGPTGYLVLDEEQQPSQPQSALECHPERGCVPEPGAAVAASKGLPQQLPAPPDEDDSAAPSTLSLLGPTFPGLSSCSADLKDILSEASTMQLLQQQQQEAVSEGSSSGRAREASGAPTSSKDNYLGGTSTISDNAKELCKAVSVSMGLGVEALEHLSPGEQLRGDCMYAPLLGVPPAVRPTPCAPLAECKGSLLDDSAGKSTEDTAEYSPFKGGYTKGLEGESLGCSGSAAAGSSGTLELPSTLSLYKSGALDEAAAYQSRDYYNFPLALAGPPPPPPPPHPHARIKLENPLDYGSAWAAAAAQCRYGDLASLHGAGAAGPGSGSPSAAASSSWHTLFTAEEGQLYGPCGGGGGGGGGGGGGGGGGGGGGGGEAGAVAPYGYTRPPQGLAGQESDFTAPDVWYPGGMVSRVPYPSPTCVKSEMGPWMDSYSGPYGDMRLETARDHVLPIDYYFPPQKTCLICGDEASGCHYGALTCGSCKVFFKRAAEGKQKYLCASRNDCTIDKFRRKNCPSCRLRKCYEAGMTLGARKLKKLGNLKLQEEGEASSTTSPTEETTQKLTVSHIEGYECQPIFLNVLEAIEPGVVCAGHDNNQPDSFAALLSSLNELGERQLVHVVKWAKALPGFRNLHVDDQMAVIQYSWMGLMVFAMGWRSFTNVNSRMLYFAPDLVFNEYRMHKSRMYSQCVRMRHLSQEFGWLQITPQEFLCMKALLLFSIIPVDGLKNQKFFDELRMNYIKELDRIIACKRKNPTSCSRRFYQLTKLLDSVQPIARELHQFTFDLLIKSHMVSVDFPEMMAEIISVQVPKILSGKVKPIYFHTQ

Compound | Agonism in AR overexpressing cells (%) (human AR) | pIC50 [1]
O=C(NCCc1ccc(-c2ccc(Cl)c(Cl)c2)o1)c1cc(C(=O)N2CCOCC2)n[nH]1 [Example 8, N-(2-(5-(3,4-dichlorophenyl)furan-2-yl)ethyl)-3-(morpholine-4-carbonyl)-1H-pyrazole-5-carboxamide] | 0 | –
Cc1cc(-c2ccn(C[C@H](C)NC(=O)c3cc(-c4ccco4)n[nH]3)n2)ccc1C#N [Example 32, (S)—N-(1-(3-(4-cyano-3-methylphenyl)-1H-pyrazol-1-yl)propan-2-yl)-3-(furan-2-yl)-1H-pyrazole-5-carboxamide] | 39 | –
CC(=O)c1cc(C(=O)N[C@@H](C)Cn2ccc(-c3ccc(C#N)c(Cl)c3)n2)[nH]n1 [Example 34, (S)-3-acetyl-N-(1-(3-(3-chloro-4-cyanophenyl)-1H-pyrazol-1-yl)propan-2-yl)-1H-pyrazole-5-carboxamide] | 39 | –
N#Cc1ccc(-c2ccn(CCNC(=O)c3cc(-c4cccnc4)n[nH]3)n2)cc1C#N [Example 52, N-(2-(3-(3,4-dicyanophenyl)-1H-pyrazol-1-yl)ethyl)-3-(pyridin-3-yl)-1H-pyrazole-5-carboxamide] | 40 | –
CC(O)c1cc(C(=O)N[C@@H](C)Cn2ccc(-c3ccc(C#N)c(Cl)c3)n2)[nH]n1 (stereo partly drawn) [Example 56, N—((S)-1-(3-(3-chloro-4-cyanophenyl)-1H-pyrazol-1-yl)-propan-2-yl)-3-(1-hydroxyethyl)-1H-pyrazole-5-carboxamide] | 27 | –
CCc1noc(C(=O)N[C@@H](C)Cn2ccc(-c3ccc(C#N)c(Cl)c3)n2)n1 [Example 91, (S)—N-(1-(3-(3-chloro-4-cyanophenyl)-1H-pyrazol-1-yl)propan-2-yl)-3-ethyl-1,2,4-oxadiazole-5-carboxamide] | 18 | –
Cc1nc(-c2cc(C(=O)N[C@@H](C)Cn3ccc(-c4ccc(C#N)c(Cl)c4)n3)n[nH]2)cs1 [Example 94, (S)—N-(1-(3-(3-chloro-4-cyanophenyl)-1H-pyrazol-1-yl)propan-2-yl)-5-(2-methylthiazol-4-yl)-1H-pyrazole-3-carboxamide] | 18 | –
Cc1noc(C(=O)N[C@@H](C)Cn2ccc(-c3ccc(C#N)c(Cl)c3)n2)n1 [Example 103, (S)—N-(1-(3-(3-chloro-4-cyanophenyl)-1H-pyrazol-1-yl)propan-2-yl)-3-methyl-1,2,4-oxadiazole-5-carboxamide] | 19 | –
CC(O)c1cc(C(=O)N[C@@H](C)Cn2ccc(-c3ccc(C#N)c(Cl)c3)n2)no1 (stereo partly drawn) [Example 124, N—((S)-1-(3-(3-chloro-4-cyanophenyl)-1H-pyrazol-1-yl)propan-2-yl)-5-(1-hydroxyethyl)isoxazole-3-carboxamide] | 5 | –
C[C@H](Cn1ccc(-c2ccc(C#N)c(Cl)c2)n1)NC(=O)c1csc(N2CCOCC2)n1 [Example 132, (R)—N-(1-(3-(3-chloro-4-cyanophenyl)-1H-pyrazol-1-yl)propan-2-yl)-2-morpholinothiazole-4-carboxamide] | 21 | –
Cc1c(-c2ccn(C[C@H](C)NC(=O)c3csc(C(C)O)n3)n2)ccc(C#N)c1Cl (stereo partly drawn) [Example 186, N—((S)-1-(3-(3-chloro-4-cyano-2-methylphenyl)-1H-pyrazol-1-yl)propan-2-yl)-2-(1-hydroxyethyl)thiazole-4-carboxamide] | >20 | –
C[C@@H](Cn1ccc(-c2ccc(C#N)c(Cl)c2)n1)NC(=O)c1csc(-c2cn[nH]c2)n1 [Example 206, (S)—N-(1-(3-(3-chloro-4-cyanophenyl)-1H-pyrazol-1-yl)propan-2-yl)-2-(1H-pyrazol-4-yl)thiazole-4-carboxamide] | >20 | –
CC(=O)c1cc(C(=O)NC[C@H](C)n2ccc(-c3cc(F)c(C#N)c(F)c3)n2)[nH]n1 [Example 219, (S)-3-acetyl-N-(2-(3-(4-cyano-3,5-difluorophenyl)-1H-pyrazol-1-yl)propyl)-1H-pyrazole-5-carboxamide] | 0 | –
C[C@H](CNC(=O)c1csc(CC#N)n1)n1ccc(-c2cc(F)c(C#N)c(F)c2)n1 [Example 222, (R)—N-(2-(3-(4-cyano-3,5-difluorophenyl)-1H-pyrazol-1-yl)propyl)-2-(cyanomethyl)thiazole-4-carboxamide] | 20 | –
Cc1nc(C(=O)N[C@@H](C)Cn2ccc(-c3ccc(C#N)c(Cl)c3)n2)c[nH]1 [Example 248, (S)—N-{1-[3-(3-Chloro-4-cyanophenyl)-1H-pyrazol-1-yl]propan-2-yl}-2-methyl-1H-imidazole-4-carboxamide] | – | 6.31
Cc1nc(C(=O)N[C@@H](C)Cn2ccc(-c3cc(F)c(C#N)c(Cl)c3)n2)c[nH]1 [Example 249, (S)—N-{1-[3-(3-Chloro-4-cyano-5-fluorophenyl)-1H-pyrazol-1-yl]propan-2-yl}-2-methyl-1H-imidazole-4-carboxamide] | 34 | –
C[C@@H](Cn1ccc(-c2cc(F)c(C#N)c(Cl)c2)n1)NC(=O)c1cn2cccnc2n1 [Example 324, (S)—N-(1-(3-(3-chloro-4-cyano-5-fluorophenyl)-1H-pyrazol-1-yl)propan-2-yl)imidazo[1,2-a]pyrimidine-2-carboxamide] | 16 | –
C[C@@H](Cn1ccc(-c2ccc(C#N)c(Cl)c2)n1)NC(=O)c1[nH]nc2c1COCC2 [Example 338, (S)—N-(1-(3-(3-chloro-4-cyanophenyl)-1H-pyrazol-1-yl)propan-2-yl)-2,4,6,7-tetrahydropyrano[4,3-c]pyrazole-3-carboxamide] | 25 | –
